Results as given in patent US20120028888A1, “APJ RECEPTOR COMPOUNDS” (priority 2008, published 2012).
Residues, ends and D or L forms follow the SMILES beside them. *: point of attachment. Palmitoyl = CCCCCCCCCCCCCCCC(=O)*; X1 = CCCCCCCCCCCOCCCC(=O)*

biological target: T1, Gi-coupled receptor APJ (HEK cells stably expressing the APJ receptor) (Homo sapiens, UniProt P35414); experiment: HTRF cAMP assay: inhibition of NKH477 stimulated increase in cAMP; type: cell-based; settings: read-out: EC50 value (nM), SEM
T1 construct: expressed in transfected cells; host or cells: HEK cells stably expressing APJ
T1 sequence (P35414 1-380): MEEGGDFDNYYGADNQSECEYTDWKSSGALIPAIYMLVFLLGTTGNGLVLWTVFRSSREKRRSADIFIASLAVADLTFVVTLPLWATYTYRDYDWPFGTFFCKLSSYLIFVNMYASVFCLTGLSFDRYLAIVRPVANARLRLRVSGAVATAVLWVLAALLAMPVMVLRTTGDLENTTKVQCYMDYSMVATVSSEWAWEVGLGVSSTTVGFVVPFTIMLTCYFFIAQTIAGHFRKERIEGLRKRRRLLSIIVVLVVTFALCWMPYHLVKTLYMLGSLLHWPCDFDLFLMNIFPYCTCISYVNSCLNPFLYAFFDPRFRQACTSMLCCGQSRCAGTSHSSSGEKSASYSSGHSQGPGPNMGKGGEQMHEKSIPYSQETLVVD
Description: HTRF (homogeneous time resolved fluorescence) is a technology developed by Cisbio Bioassays based on TR-FRET (time-resolved fluorescence resonance energy transfer). Cisbio Bioassays has developed a wide selection of HTRF-based assays compatible with whole cells, thereby enabling functional assays to run under more physiological conditions. The IP-One assays are competitive immunoassays using cryptate-labeled anti-IPI monoclonal antibody and d2-labeled IP1. IP1 is a relatively stable downstream metabolite of IP3, and accumulates in cells following Gq receptor activation.
cAMP kits based on a competitive immunoassay using cryptate-labeled anti-cAMP antibody and d2-labeled cAMP were used to assay the effects of APJ compounds of the present invention. This assay measures the increase in intracellular cAMP upon Gs-coupled receptor activation as well as decrease in forskolin (or a more soluble version of forskolin—NKH477) stimulated increase in cAMP upon Gi-coupled receptor activation.

| EC50 [nM] | SMILES |
| --- | --- |
| 1 to 500 | CCCCCCCCCCCCCCCC(=O)N[C@@H](Cc1ccccc1)C(=O)N[C@@H](CCCNC(=N)N)C(=O)N[C@@H](CO)C(=O)N[C@@H](CO)C(=O)N[C@@H](CCCNC(=N)N)C(=O)N[C@@H](CCC(=O)O)C(=O)N[C@@H](CCCCN)C(=O)N[C@@H](CCCNC(=N)N)C(=O)N[C@@H](CCCNC(=N)N)C(=O)N[C@@H](CO)C(=O)N[C@@H](C)C(=O)N[C@@H](CC(=O)O)C(=O)N[C@H](C(=O)N[C@@H](Cc1ccccc1)C(=O)N[C@H](C(N)=O)[C@@H](C)CC)[C@@H](C)CC [Compound 11] (Palmitoyl-FRSSREKRRSADIFI-NH2) |
| 1 to 500 | CCCCCCCCCCCCCCCC(=O)N[C@H](C(=O)N[C@@H](C)C(=O)N[C@@H](Cc1ccccc1)C(=O)N[C@@H](CCCNC(=N)N)C(=O)N[C@@H](CO)C(=O)N[C@@H](CO)C(=O)N[C@@H](CCCNC(=N)N)C(=O)N[C@@H](CCC(=O)O)C(=O)N[C@@H](CCCCN)C(=O)N[C@@H](CCCNC(=N)N)C(=O)N[C@@H](CCCNC(=N)N)C(=O)N[C@@H](CO)C(=O)N[C@@H](C)C(=O)N[C@@H](CC(=O)O)C(=O)N[C@H](C(=O)N[C@@H](Cc1ccccc1)C(=O)N[C@H](C(N)=O)[C@@H](C)CC)[C@@H](C)CC)[C@@H](C)O [Compound 22] (Palmitoyl-TAFRSSREKRRSADIFI-NH2) |
| 1000 to 5000 | CCCCCCCCCCCCCCCC(=O)N[C@H](C(=O)N[C@H](C(=O)N[C@@H](Cc1ccccc1)C(=O)N[C@@H](C)C(=O)N[C@@H](CO)C(=O)N[C@@H](CO)C(=O)N[C@@H](CCCNC(=N)N)C(=O)N[C@@H](CCC(=O)O)C(=O)N[C@@H](CCCCN)C(=O)N[C@@H](CCCNC(=N)N)C(=O)N[C@@H](CCCNC(=N)N)C(=O)N[C@@H](CO)C(=O)N[C@@H](C)C(=O)N[C@@H](CC(=O)O)C(=O)N[C@H](C(=O)N[C@@H](Cc1ccccc1)C(=O)N[C@H](C(N)=O)[C@@H](C)CC)[C@@H](C)CC)C(C)C)[C@@H](C)O [Compound 24] (Palmitoyl-TVFASSREKRRSADIFI-NH2) |
| 1000 to 5000 | CCCCCCCCCCCCCCCC(=O)N[C@H](C(=O)N[C@@H](CO)C(=O)N[C@@H](CO)C(=O)N[C@@H](CCCNC(=N)N)C(=O)N[C@@H](CCC(=O)O)C(=O)N[C@@H](CCCCN)C(=O)N[C@@H](CCCNC(=N)N)C(=O)N[C@@H](CCCNC(=N)N)C(=O)N[C@@H](CO)C(=O)N[C@@H](C)C(=O)N[C@@H](CC(=O)O)C(=O)N[C@H](C(=O)N[C@@H](Cc1ccccc1)C(=O)N[C@H](C(N)=O)[C@@H](C)CC)[C@@H](C)CC)C(C)C [Compound 25] (Palmitoyl-VSSREKRRSADIFI-NH2) |
| 501 to 1000 | CCCCCCCCCCCCCCCC(=O)N[C@H](C(=O)N[C@H](C(=O)N[C@@H](Cc1ccccc1)C(=O)N[C@@H](CCCNC(=N)N)C(=O)N[C@@H](C)C(=O)N[C@@H](CO)C(=O)N[C@@H](CCCNC(=N)N)C(=O)N[C@@H](CCC(=O)O)C(=O)N[C@@H](CCCCN)C(=O)N[C@@H](CCCNC(=N)N)C(=O)N[C@@H](CCCNC(=N)N)C(=O)N[C@@H](CO)C(=O)N[C@@H](C)C(=O)N[C@@H](CC(=O)O)C(=O)N[C@H](C(=O)N[C@@H](Cc1ccccc1)C(=O)N[C@H](C(N)=O)[C@@H](C)CC)[C@@H](C)CC)C(C)C)[C@@H](C)O [Compound 27] (Palmitoyl-TVFRASREKRRSADIFI-NH2) |
| 1 to 500 | CCCCCCCCCCCCCCCC(=O)N[C@H](C(=O)N[C@H](C(=O)N[C@@H](Cc1ccccc1)C(=O)N[C@@H](CCCNC(=N)N)C(=O)N[C@@H](CO)C(=O)N[C@@H](C)C(=O)N[C@@H](CCCNC(=N)N)C(=O)N[C@@H](CCC(=O)O)C(=O)N[C@@H](CCCCN)C(=O)N[C@@H](CCCNC(=N)N)C(=O)N[C@@H](CCCNC(=N)N)C(=O)N[C@@H](CO)C(=O)N[C@@H](C)C(=O)N[C@@H](CC(=O)O)C(=O)N[C@H](C(=O)N[C@@H](Cc1ccccc1)C(=O)N[C@H](C(N)=O)[C@@H](C)CC)[C@@H](C)CC)C(C)C)[C@@H](C)O [Compound 28] (Palmitoyl-TVFRSAREKRRSADIFI-NH2) |
| 1 to 500 | CCCCCCCCCCCCCCCC(=O)N[C@H](C(=O)N[C@H](C(=O)N[C@@H](Cc1ccccc1)C(=O)N[C@@H](CCCNC(=N)N)C(=O)N[C@@H](CO)C(=O)N[C@@H](CO)C(=O)N[C@@H](CCCNC(=N)N)C(=O)N[C@@H](CCC(=O)O)C(=O)N[C@@H](CCCCN)C(=O)N[C@@H](CCCNC(=N)N)C(=O)N[C@@H](CCCNC(=N)N)C(=O)N[C@@H](C)C(=O)N[C@@H](C)C(=O)N[C@@H](CC(=O)O)C(=O)N[C@H](C(=O)N[C@@H](Cc1ccccc1)C(=O)N[C@H](C(N)=O)[C@@H](C)CC)[C@@H](C)CC)C(C)C)[C@@H](C)O [Compound 32] (Palmitoyl-TVFRSSREKRRAADIFI-NH2) |
| > 10000 | CCCCCCCCCCCCCCCC(=O)N[C@@H](CO)C(=O)N[C@@H](CO)C(=O)N[C@@H](CCCNC(=N)N)C(=O)N[C@@H](CCC(=O)O)C(=O)N[C@@H](CCCCN)C(=O)N[C@@H](CCCNC(=N)N)C(=O)N[C@@H](CCCNC(=N)N)C(=O)N[C@@H](CO)C(=O)N[C@@H](C)C(=O)N[C@@H](CC(=O)O)C(=O)N[C@H](C(=O)N[C@@H](Cc1ccccc1)C(=O)N[C@H](C(=O)N[C@@H](C)C(N)=O)[C@@H](C)CC)[C@@H](C)CC [Compound 33] (Palmitoyl-SSREKRRSADIFIA-NH2) |
| 1000 to 5000 | CCCCCCCCCCCCCCCC(=O)N[C@H](C(=O)N[C@H](C(=O)N[C@@H](Cc1ccccc1)C(=O)N[C@@H](Cc1c[nH]c2ccccc12)C(=O)N[C@@H](CO)C(=O)N[C@@H](CO)C(=O)N[C@@H](CCCNC(=N)N)C(=O)N[C@@H](CCC(=O)O)C(=O)N[C@@H](CCCCN)C(=O)N[C@@H](CCCNC(=N)N)C(=O)N[C@@H](CCCNC(=N)N)C(=O)N[C@@H](CO)C(=O)N[C@@H](C)C(=O)N[C@@H](CC(=O)O)C(=O)N[C@H](C(=O)N[C@@H](Cc1ccccc1)C(=O)N[C@H](C(N)=O)[C@@H](C)CC)[C@@H](C)CC)C(C)C)[C@@H](C)O [Compound 36] (Palmitoyl-TVFWSSREKRRSADIFI-NH2) |
| 1 to 500 | CCCCCCCCCCCCCCCC(=O)N[C@H](C(=O)N[C@H](C(=O)N[C@@H](Cc1ccccc1)C(=O)N[C@@H](CCCNC(=N)N)C(=O)N[C@@H](CO)C(=O)N[C@@H](CO)C(=O)N[C@@H](CCCNC(=N)N)C(=O)N[C@@H](CCC(=O)O)C(=O)N[C@@H](CCCCN)C(=O)N[C@@H](CCCNC(=N)N)C(=O)N[C@@H](CCCNC(=N)N)C(=O)N[C@@H](CO)C(=O)N[C@@H](C)C(=O)N[C@@H](CC(=O)O)C(=O)N[C@H](C(=O)N[C@@H](C)C(=O)N[C@H](C(N)=O)[C@@H](C)CC)[C@@H](C)CC)C(C)C)[C@@H](C)O [Compound 39] (Palmitoyl-TVFRSSREKRRSADIAI-NH2) |
| 501 to 1000 | CCCCCCCCCCCCCCCC(=O)N[C@H](C(=O)N[C@H](C(=O)N[C@@H](Cc1ccccc1)C(=O)N[C@@H](CCCNC(=N)N)C(=O)N[C@@H](CO)C(=O)N[C@@H](CO)C(=O)N[C@@H](CCCNC(=N)N)C(=O)N[C@@H](CCC(=O)O)C(=O)N[C@@H](CCCCN)C(=O)N[C@@H](CCCNC(=N)N)C(=O)N[C@@H](CCCNC(=N)N)C(=O)N[C@@H](CO)C(=O)N[C@@H](C)C(=O)N[C@@H](CC(=O)O)C(=O)N[C@H](C(=O)N[C@@H](Cc1ccccc1)C(=O)N[C@@H](C)C(N)=O)[C@@H](C)CC)C(C)C)[C@@H](C)O [Compound 40] (Palmitoyl-TVFRSSREKRRSADIFA-NH2) |
| 1 to 500 | CCCCCCCCCCCCCCCC(=O)N[C@H](C(=O)N[C@H](C(=O)N[C@@H](Cc1ccccc1)C(=O)N[C@@H](CCCNC(=N)N)C(=O)N[C@@H](CO)C(=O)N[C@@H](CO)C(=O)N[C@@H](CCCNC(=N)N)C(=O)N[C@@H](C)C(=O)N[C@@H](CCCCN)C(=O)N[C@@H](CCCNC(=N)N)C(=O)N[C@@H](CCCNC(=N)N)C(=O)N[C@@H](CO)C(=O)N[C@@H](C)C(=O)N[C@@H](CC(=O)O)C(=O)N[C@H](C(=O)N[C@@H](Cc1ccccc1)C(=O)N[C@H](C(N)=O)[C@@H](C)CC)[C@@H](C)CC)C(C)C)[C@@H](C)O [Compound 41] (Palmitoyl-TVFRSSRAKRRSADIFI-NH2) |
| 1000 to 5000 | CCCCCCCCCCCCCCCC(=O)N[C@H](C(=O)N[C@H](C(=O)N[C@@H](Cc1ccccc1)C(=O)N[C@@H](CCCNC(=N)N)C(=O)N[C@@H](CO)C(=O)N[C@@H](CO)C(=O)N[C@@H](CCCNC(=N)N)C(=O)N[C@@H](CCC(=O)O)C(=O)N[C@@H](CCCCN)C(=O)N[C@@H](CCCNC(=N)N)C(=O)N[C@@H](CCCNC(=N)N)C(=O)N[C@@H](CO)C(=O)N[C@@H](C)C(=O)N[C@@H](CC(=O)O)C(=O)N[C@H](C(=O)N[C@@H](Cc1ccccc1)C(=O)N[C@H](C(=O)O)[C@@H](C)CC)[C@@H](C)CC)C(C)C)[C@@H](C)O [Compound 42] (Palmitoyl-TVFRSSREKRRSADIFI-OH) |
| 1 to 500 | CCCCCCCCCCCOCCCC(=O)N[C@H](C(=O)N[C@H](C(=O)N[C@@H](Cc1ccccc1)C(=O)N[C@@H](CCCNC(=N)N)C(=O)N[C@@H](CO)C(=O)N[C@@H](CO)C(=O)N[C@@H](CCCNC(=N)N)C(=O)N[C@@H](CCC(=O)O)C(=O)N[C@@H](CCCCN)C(=O)N[C@@H](CCCNC(=N)N)C(=O)N[C@@H](CCCNC(=N)N)C(=O)N[C@@H](CO)C(=O)N[C@@H](C)C(=O)N[C@@H](CC(=O)O)C(=O)N[C@H](C(=O)N[C@@H](Cc1ccccc1)C(=O)N[C@H](C(N)=O)[C@@H](C)CC)[C@@H](C)CC)C(C)C)[C@@H](C)O [Compound 60] (X1-TVFRSSREKRRSADIFI-NH2) |
